In ChEMBL document CHEMBL4419180, “Compositions and methods for treating g protein coupled receptor mediated conditions” (2018) one finds inhibition, fold change (FC) and Activity data, which are given here for 5 molecules.

The target of assay [1] is Mas-related G-protein coupled receptor member X4 (Homo sapiens) (UniProt Q96LA9). The assay can be described thus: Antagonist activity at recombinant human MrgprX4 expressed in HEK293 cells assessed as blockade of bilirubin-induced inositol phosphate accumulation incubated for 1 hr at 37 degC followed by incubation for 30 mins at room temperature before bilirubin addition by HTRF assay relative to control. The class given is functional, cell-based. For orientation: Time-resolved FRET reads energy transfer from a long-lived donor to a nearby acceptor.
Mas-related G-protein coupled receptor member X4 (Homo sapiens), sequence (Q96LA9 whole entry): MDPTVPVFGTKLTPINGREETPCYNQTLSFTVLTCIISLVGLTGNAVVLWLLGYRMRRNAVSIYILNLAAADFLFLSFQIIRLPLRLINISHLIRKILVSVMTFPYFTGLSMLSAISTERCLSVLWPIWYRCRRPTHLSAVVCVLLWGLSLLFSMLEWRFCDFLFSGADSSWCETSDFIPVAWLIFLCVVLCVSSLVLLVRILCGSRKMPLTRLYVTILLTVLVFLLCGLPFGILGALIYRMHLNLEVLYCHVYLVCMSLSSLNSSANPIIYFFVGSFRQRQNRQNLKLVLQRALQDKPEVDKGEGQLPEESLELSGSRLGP

Assay [2] has the same target. In words: Inverse agonist activity at recombinant human MrgprX4 expressed in HEK293 cells assessed as reduction in inositol phosphate accumulation incubated for 1 hr at 37 degC followed by incubation for 30 mins at room temperature by HTRF assay relative to baseline. The class given is functional, cell-based.
The test system of assay [3] is Mus musculus. The assay can be described thus: Suppression of bilirubin-induced pruritus in mouse assessed as reduction in scratching bouts in 30 mins at 0.25 mg/kg co-injected with bilirubin. The class given is functional, organism-based.
For assay [4], the system named is Mus musculus. In words: Suppression of chloroquine-induced pruritus in mouse assessed as reduction in scratching bouts in 30 mins at 1 mg/kg co-injected with chloroquine. The format is functional, organism-based.
The subject of assay [5] is Mus musculus. The assay can be described thus: Suppression of ANIT-induced cholestatic pruritus in mouse assessed as reduction in scratching bouts in 30 mins at 1 mg/kg, ip 30 mins before behavioral analysis. The class given is functional, organism-based.
Assay [6] has as its system Mus musculus. The assay can be described thus: Suppression of ANIT-induced cholestatic liver injury in mouse assessed as effect on total bilirubin at 1 mg/kg, ip. The class given is functional, organism-based.
The subject of assay [7] is Mus musculus. The assay can be described thus: Suppression of ANIT-induced cholestatic liver injury in mouse assessed as effect on ALT level at 1 mg/kg, ip. The format is functional, organism-based.
Assay [8] deals with Mus musculus. In words: Suppression of ANIT-induced cholestatic liver injury in mouse assessed as effect on AST level at 1 mg/kg, ip. The format is functional, organism-based.
The test system of assay [9] is Mus musculus. In words: Suppression of ANIT-induced cholestatic liver injury in mouse assessed as effect on ALP level at 1 mg/kg, ip. The format is functional, organism-based.

The source made the active and inactive calls. The calls are words filed in the database; no cut-off is given here. Non-standard residues stand in square brackets, D forms with d. Residues, ends and D or L forms follow the SMILES beside them. *: point of attachment. Boc = CC(C)(C)OC(=O)*; OBn = c1ccc(CO*)cc1; For = O=C*

Regarding `Nc1nc2ccccc2n1CCOc1ccccc1Cl`, in assay [1], the inhibition (commonly the share of the control response that was lost under treatment) is 70 to 85%. Besides, the fold change (FC) in assay [2] fell in the range of 2 to 3.

For the molecule `O=C(NCc1cc2ccccc2[nH]1)c1cc(-c2ccccn2)nc2ccc(Br)cc12`, the inhibition in [1] worked out at 85%. In addition, the fold change (FC) in assay [2] is 2 to 3.

In the case of `Cc1c(C(=O)NCc2ccccc2C(F)(F)F)ncn1Cc1ccc(Cl)cc1`, the inhibition in assay [1] came to 85%. Also, the fold change (FC) in assay [2] was determined as 3.

For the molecule `Cc1nc(-c2ccnn2Cc2ccc(Cl)cc2)[nH]c1-c1ccccc1`, in assay [1], the inhibition was 85%. In assay [2], the fold change (FC) is 3.

Take `CC(C)(C)OC(=O)N[C@@H](CCC(N)=O)C(=O)N[C@H](Cc1cn(C=O)c2ccccc12)C(=O)N[C@@H](Cc1ccccc1)C(=O)OCc1ccccc1` (Boc-Gln-[dW](For)-Phe-OBn): the outcome in the assay on Mus musculus [3] and with Mus musculus [5] was Active. For the same molecule, the result in the assay on Mus musculus [4], with Mus musculus [6], in the assay on Mus musculus [7], in the assay with Mus musculus [8] and in the assay on Mus musculus [9] was inactive.
